Results published in US20130165368A1, “ANTIMICROBIAL COMPOUNDS” (priority 2010, published 2013).
In brackets after ≈: the same amount, converted by molar mass. Read-outs that look alike come from different tables or passages of the source.

Legend:
Assay type in all cases: cell-based
[1] = system: MRSA NCTC 11939; test: MIC agar dilution, MRSA strain 50; settings: Staphylococcus aureus, MRSA strain 50 NCTC 11939
Protocol: (§1) Molar equivalent concentrations were used to allow comparison between compounds of differing molecular mass. Due to weighing difficulties, any compound in solid form was melted in a water bath prior to dilution. To make ten-times strength concentrations, which takes into account agar dilution, 0.0352 mmol of each compound was weighed into plastic universal bottles and 4 mL of sterile distilled water (SDW) was added. To produce a homogenous emulsion the universals were vortexed; once achieved the emulsions were serial diluted by adding 2 mL to 2 mL of SDW.
(§2) For every 100 mL of Isosensitest agar (IST) (CM0471; Oxoid, Basingstoke, England), 3.1 g of the IST powder was added to 100 mL SDW (as per manufacturer's instructions) and sterilised for 15 minutes at 121° C. Once sterilised, the molten agar was cooled to 50° C. in a water-bath. Subsequently 4.8 g of CCEY powder (BC2160; Bioconnections, Wetherby, England), also known as Brazier's medium, was added to 100 mL SDW for every 100 mL of agar needed. This was then sterilised for 15 minutes at 121° C. Once sterilised the molten agar was cooled to 50° C. in a water-bath and 4 mL of egg-yolk emulsion (S2073; TCS Biosciences Ltd, Buckingham, United Kingdom) and 1 mL of lysed defibrinated horse blood (HB035; TCS Biosciences Ltd, Buckingham, United Kingdom) were also added for every 100 mL needed. Horse blood lysis is achieved by dilution to half concentration with SDW; when fully lysed the mixture will turn dark red in colour.
(§3) 18 mL agar was added to each universal and then poured into sterile Petri dishes. This step creates a 1/10 dilution resulting in agar plates of the required strength. Control plates for each set of strains were created by adding 18 mL of agar to 2 mL of SDW.
(§4) Suspensions of each bacterial species were prepared with a density equal to that of a 0.5 McFarland standard using a densitometer. All suspensions were made using sterile distilled water and fresh 18-20 hour cultures. As a 0.5 McFarland standard contains 1.5×10^8 CFU/mL and the multipoint inoculators applies 1 μL spots of liquid, each bacterial suspension was diluted 1/15 (20 μL suspension to 280 μL sterile distilled water).
(§5) Bacterial suspensions were prepared from fresh 18-24 hour cultures as previously described. 1 μL of each strain was inoculated onto all 100 agar plates containing a different chemical concentration and the 2 control plates. This was done using a multipoint inoculator which inoculates 20 strains per plate. All plates were incubated for 22 hours at 37° C. in aerobic conditions.
(§6) Each plate was examined for bacterial growth after 22 and 48 hours, with each being incubated in between examinations. A positive result was recorded as growth of ≧10 colonies. A negative result was recorded as growth of <10 colonies as this is equivalent to 99.9% inhibition. The lowest concentration of chemical that inhibited growth was recorded as the MIC. The results are recorded in Table IV below, where the numbers are quoted in mmol/L.
(§7) Given the positive performance of the ethoxylates of lauryl alcohol in reducing the MIC for a number of the micro-organisms tested, further MIC testing of Laureth-1 [C12E1] through to Laureth-8 [C12E8] was conducted on each of the following: • 10 strains of vancomycin-resistant enterococci (VRE)—listed in Table V below; and • 20 strains of methicillin-resistant Staphylococcus aureus (MRSA)—listed in Table VI.
(§8) The alkanol, alkanol derivatives, agar plates, and inocula were all prepared in the same way as described above.
(§9) The plates were examined in the same manner as described above and the results are recorded in Table VII below, where the numbers are quoted in mmol/L.

[2] = system: MRSA EMRSA 15 21698/98; test: MIC agar dilution, MRSA strain 41; settings: Staphylococcus aureus
Protocol: as §1, §2, §3, §4, §5, §6, §7, §8, §9

[3] = system: Candida albicans; test: MIC agar dilution, micro-organism 19 (90028); settings: Candida albicans 90028, read-out: MIC
Method in brief: (§10)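 Agar dilution in Isosensitest/CCEY agar with egg yolk and lysed horse blood; compounds as aqueous emulsions (myristyl and lauryl alcohol with 1-methyl-2-pyrrolidone and Tween 20). 1 µL spots of 1/15-diluted 0.5 McFarland suspensions, 37 °C aerobic, read at 22 and 48 h; MIC (mmol/L) is lowest concentration giving <10 colonies.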

[4] = system: MRSA EMRSA 15 1758/98; test: MIC agar dilution, MRSA strain 43; settings: Staphylococcus aureus
Protocol: as §1, §2, §3, §4, §5, §6, §7, §8, §9

[5] = system: Enterococcus faecalis; test: MIC agar dilution, micro-organism 17 (775); settings: Enterococcus faecalis 775, read-out: MIC
Method in brief: as §10

[6] = system: Enterococcus faecium (VRE) NCTC 12952; test: MIC agar dilution, VRE strain 30
Protocol: as §1, §2, §3, §4, §5, §6, §7, §8, §9

[7] = system: MRSA FIN 54518 (E7); test: MIC agar dilution, MRSA strain 31; settings: Staphylococcus aureus
Protocol: as §1, §2, §3, §4, §5, §6, §7, §8, §9

[8] = system: Providencia rettgeri; test: MIC agar dilution, micro-organism 3 (7475); settings: Providencia rettgeri 7475, read-out: MIC
Method in brief: as §10

[9] = system: Steptococcus pyogenes; test: MIC agar dilution, micro-organism 11 (8306); settings: Steptococcus pyogenes 8306, read-out: MIC
Method in brief: as §10

[10] = system: Enterococcus faecium (VRE) MB310; test: MIC agar dilution, VRE strain 29
Protocol: as §1, §2, §3, §4, §5, §6, §7, §8, §9

[11] = system: Staphylococcus aureus (MRSA); test: MIC agar dilution, micro-organism 12 (11939); settings: Staphylococcus aureus, MRSA, Staphylococcus aureus (MRSA) 11939, read-out: MIC
Method in brief: as §10

[12] = system: MRSA FRA 95035; test: MIC agar dilution, MRSA strain 37; settings: Staphylococcus aureus
Protocol: as §1, §2, §3, §4, §5, §6, §7, §8, §9

[13] = system: MRSA GER 1966/97 (Hanover IIIc); test: MIC agar dilution, MRSA strain 36; settings: Staphylococcus aureus
Protocol: as §1, §2, §3, §4, §5, §6, §7, §8, §9

Compound	MIC ([1]; 22 hrs)	MIC ([1]; 48 hrs)	MIC ([2]; 22 hrs)	MIC ([2]; 48 hrs)	MIC ([3]; 22 hrs)	MIC ([3]; 48 hrs)	MIC ([4]; 22 hrs)	MIC ([4]; 48 hrs)	MIC ([5]; 22 hrs)	MIC ([5]; 48 hrs)	MIC ([6]; 22 hrs)	MIC ([6]; 48 hrs)	MIC ([7]; 22 hrs)	MIC ([7]; 48 hrs)	MIC ([8]; 22 hrs)	MIC ([8]; 48 hrs)	MIC ([9]; 22 h, 22 hrs)	MIC ([9]; 48 h, 48 hrs)	MIC ([10]; 22 hrs)	MIC ([10]; 48 hrs)	further results
CCCCCCCCCCCCOCCOCCO [L2, Diethylene Glycol Monododecyl Ether]	55 µM (≈ 15.1 µg/mL)	110 µM (≈ 30.2 µg/mL)	110 µM (≈ 30.2 µg/mL)	110 µM (≈ 30.2 µg/mL)	220 µM (≈ 60.4 µg/mL)	220 µM (≈ 60.4 µg/mL)	110 µM (≈ 30.2 µg/mL)	110 µM (≈ 30.2 µg/mL)	220 µM (≈ 60.4 µg/mL)	220 µM (≈ 60.4 µg/mL)	440 µM (≈ 121 µg/mL)	440 µM (≈ 121 µg/mL)	220 µM (≈ 60.4 µg/mL)	220 µM (≈ 60.4 µg/mL)	> 880 µM	> 880 µM	110 µM (≈ 30.2 µg/mL)	110 µM (≈ 30.2 µg/mL)	880 µM (≈ 242 µg/mL)	880 µM (≈ 242 µg/mL)	MIC ([11]; 22 h, 22 hrs): 110 µM (≈ 30.2 µg/mL); MIC ([11]; 48 h, 48 hrs): 110 µM (≈ 30.2 µg/mL); MIC ([12]; 22 hrs): 220 µM (≈ 60.4 µg/mL); MIC ([12]; 48 hrs): 220 µM (≈ 60.4 µg/mL); MIC ([13]; 22 hrs): 110 µM (≈ 30.2 µg/mL); MIC ([13]; 48 hrs): 110 µM (≈ 30.2 µg/mL)
CCCCCCCCCCCCOCCOCCOCCO [L3, Triethylene Glycol Monododecyl Ether]	55 µM (≈ 17.5 µg/mL)	55 µM (≈ 17.5 µg/mL)	110 µM (≈ 35 µg/mL)	110 µM (≈ 35 µg/mL)	220 µM (≈ 70.1 µg/mL)	220 µM (≈ 70.1 µg/mL)	55 µM (≈ 17.5 µg/mL)	110 µM (≈ 35 µg/mL)	110 µM (≈ 35 µg/mL)	110 µM (≈ 35 µg/mL)	220 µM (≈ 70.1 µg/mL)	220 µM (≈ 70.1 µg/mL)	220 µM (≈ 70.1 µg/mL)	440 µM (≈ 140 µg/mL)	> 880 µM	> 880 µM	≤ 50 µM	≤ 50 µM	440 µM (≈ 140 µg/mL)	440 µM (≈ 140 µg/mL)	MIC ([11]; 22 h, 22 hrs): 110 µM (≈ 35 µg/mL); MIC ([11]; 48 h, 48 hrs): 110 µM (≈ 35 µg/mL); MIC ([12]; 22 hrs): 55 µM (≈ 17.5 µg/mL); MIC ([12]; 48 hrs): 55 µM (≈ 17.5 µg/mL); MIC ([13]; 22 hrs): 55 µM (≈ 17.5 µg/mL); MIC ([13]; 48 hrs): 55 µM (≈ 17.5 µg/mL)
CCCCCCCCCCCCOCCOCCOCCOCCO [L4, Tetraethylene Glycol Monododecyl Ether]	55 µM (≈ 19.9 µg/mL)	55 µM (≈ 19.9 µg/mL)	55 µM (≈ 19.9 µg/mL)	55 µM (≈ 19.9 µg/mL)	440 µM (≈ 160 µg/mL)	220 µM (≈ 79.8 µg/mL)	55 µM (≈ 19.9 µg/mL)	55 µM (≈ 19.9 µg/mL)	110 µM (≈ 39.9 µg/mL)	110 µM (≈ 39.9 µg/mL)	440 µM (≈ 160 µg/mL)	440 µM (≈ 160 µg/mL)	220 µM (≈ 79.8 µg/mL)	440 µM (≈ 160 µg/mL)	> 880 µM	> 880 µM	≤ 50 µM	≤ 50 µM	110 µM (≈ 39.9 µg/mL)	110 µM (≈ 39.9 µg/mL)	MIC ([11]; 22 h, 22 hrs): 110 µM (≈ 39.9 µg/mL); MIC ([11]; 48 h, 48 hrs): 110 µM (≈ 39.9 µg/mL); MIC ([12]; 22 hrs): 55 µM (≈ 19.9 µg/mL); MIC ([12]; 48 hrs): 55 µM (≈ 19.9 µg/mL); MIC ([13]; 22 hrs): 55 µM (≈ 19.9 µg/mL); MIC ([13]; 48 hrs): 55 µM (≈ 19.9 µg/mL)
